In general, Km refers to the concentration of substrate that gives half-maximal velocity. The term Vmax denotes the top rate of the reaction or transport when substrate is in excess. For orientation: Kd means a measure of binding affinity in units of concentration. By solubility is commonly meant the concentration that dissolves in the medium under given conditions. A lower solubility goes with little dissolved substance. Usually IC50 stands for the midpoint of a concentration-inhibition curve. Lower therefore signals greater potency in that assay.

Consider 5 compounds from article PMC4277729 (Bioorganic & medicinal chemistry letters, 2014).

For data set [1], the target named is T1, chxEH (Gallus gallus, UniProt Q45QT1). The data set can be described thus: kinetic constants of chxEH for epoxy-fatty acid substrate. Type of data set: biochemical, chicken. Particulars: chxEH's best substrate.
Data set [2] deals with T1, chxEH. The data set can be described thus: FRET-based competitive displacement assay with reporter ligand ACPU.
The nature of data set [3]: solubility by turbidity measurement at 600 nm. The format is physicochemical. Particulars: sodium phosphate buffer, pH 7.4.
The target of the next data set is chicken sEH (chxEH) (Gallus gallus, UniProt Q45QT1). Nature of the data set: chxEH inhibition, fluorescent substrate PHOME. The format is biochemical.
Setting [4] is: substrate of recombinant purified chicken sEH.

The structures appear in SMILES notation. Converted amounts (≈) assume the structure as drawn.

For the compound `CCC=CCC1OC1CC=CCC=CCC=CCC=CCCC(=O)O` (centres unmarked) [16,17-epoxy-docosapentaenoic acid], on chxEH [1], the Km came to 12 ± 3 µM and the Vmax came out at 728 ± 97 nmol/min/mg. For `O=C(NC1CCN(C(=O)Cc2cc(=O)oc3cc(O)ccc23)CC1)NC12CC3CC(CC(C3)C1)C2` [ACPU], the Kd on chxEH [2] stood at 0.283 nM. Turning to `O=C(O)CCCCCCCCCCCNC(=O)NC12CC3CC(CC(C3)C1)C2` [AUDA], the solubility in data set [3] is 37.5 to 50 µM (≈ 14.7 to 19.6 µg/mL). Besides, the IC50 against chicken sEH (chxEH) was 12 nM. For `COc1ccc2cc(C(C#N)OC(=O)CC3OC3c3ccccc3)ccc2c1` (centres unmarked) [PHOME, (3-phenyl-oxiranyl)-acetic acid cyano-(6-methoxy-naphthalen-2-yl)-methyl ester], on chicken sEH (chxEH) (setting [4]), the Km was found to be 1.5 ± 0.3 µM and the Vmax came to 60 ± 4 nmol/min/mg.

Consider `CCC(=O)N1CCC(NC(=O)Nc2ccc(OC(F)(F)F)cc2)CC1` [TPPU], for which the “inhibition of chxEH” value against chicken sEH (chxEH) (inhibitor 100 nM, chxEH 1.4 nM, primary screen, endpoint mode) worked out at 15%.
